Calls of active or inactive are those of the source. The rule behind the calls is not given here.

Broadly, the EC50 is the concentration needed to bring the measured effect to its halfway point.

Assay [1] is described as follows: TRAIL sensitizers in caspase-8 expressing neuroblastoma cells, dose response, NB7 cells plus caspase-8, luminescence, panel (AID 652002). As to conditions: NB7 neuroblastoma +caspase-8, no TRAIL, compound-alone cytotoxicity counter-screen, luminescence viability, NB7+Caspase-8. (In general: A counterscreen serves to expose hits that act by an unwanted route or on another target.)

Assay [2] concerns the target Tumor necrosis factor receptor superfamily member 10B (Homo sapiens) (UniProt O14763). The assay is described as above. To be noted: NB7 neuroblastoma +caspase-8, TRAIL sensitization, luminescence viability; NB7+Caspase-8; with TRAIL, mean of runs.
Another assay has as its target NB7+Caspase-8. Described as above. To be noted: NB7 neuroblastoma +caspase-8, TRAIL sensitization, luminescence viability, with TRAIL.
Setting [3] is: run 1, single replicate panel EC50.
Where [4] appears, read: run 2, single replicate panel EC50.

Tumor necrosis factor receptor superfamily member 10B (Homo sapiens), sequence (O14763 whole entry, looked up): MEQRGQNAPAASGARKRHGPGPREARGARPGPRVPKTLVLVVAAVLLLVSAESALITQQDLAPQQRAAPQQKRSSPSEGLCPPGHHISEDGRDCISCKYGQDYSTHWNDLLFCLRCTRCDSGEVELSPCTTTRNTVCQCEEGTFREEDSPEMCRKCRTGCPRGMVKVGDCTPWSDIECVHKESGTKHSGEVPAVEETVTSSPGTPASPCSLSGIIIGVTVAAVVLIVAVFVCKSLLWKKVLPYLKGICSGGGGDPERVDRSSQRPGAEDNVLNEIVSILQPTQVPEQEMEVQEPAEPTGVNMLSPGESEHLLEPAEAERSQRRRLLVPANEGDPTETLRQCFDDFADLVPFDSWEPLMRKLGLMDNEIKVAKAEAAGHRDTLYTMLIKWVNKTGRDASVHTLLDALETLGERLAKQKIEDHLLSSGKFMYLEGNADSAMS

As to `Cc1ccc(NC(=O)c2ccccc2O)cc1`, the EC50 result in assay [1] (mean of runs) and in assay [2] was “inactive” each time. In addition, the half-maximal effective concentration (EC50) in assay [1] (setting [3]) was 11.1 µM; in assay [1] (setting [4]) it was 7.77 µM; at NB7+Caspase-8 (setting [3]), above 12.5 µM; on NB7+Caspase-8 (setting [4]), 10.5 µM.
For `COC(=O)[C@]12CCCCC=C1N(Cc1cccc3ccccc13)C(=O)[C@H](CC(=O)NCc1ccc(OC)c(OC)c1)C2`, the EC50 result in assay [1] (mean of runs) and in assay [2] was “inactive” throughout. Also, the EC50 in assay [1] (setting [3]) was above 12.5 µM; in assay [1] (setting [4]), 10.2 µM; at NB7+Caspase-8 (setting [3]) it was above 12.5 µM; at NB7+Caspase-8 (setting [4]), 10.7 µM.
For `NNC(=O)C1CCCn2c1nc1sc3c(c1c2=O)CCCC3` (stereo not given), the EC50 was > 12.5 µM (inactive) in assay [1] (mean of runs); above 12.5 µM in assay [1] (setting [3]); above 12.5 µM in assay [1] (setting [4]); > 12.5 µM (inactive) in assay [2]; above 12.5 µM at NB7+Caspase-8 (setting [3]); above 12.5 µM on NB7+Caspase-8 (setting [4]).
Consider `C#Cc1ccc(NC(=O)C2(C)CCN2C(=O)Cc2ccc(C(C)C)cc2)cc1` (stereo not given), for which, in assay [1] (mean of runs), the EC50 result was “inactive”. The EC50 in assay [1] (setting [3]) is above 12.5 µM; in assay [1] (setting [4]) it was 8.26 µM; in assay [2], > 12.5 µM (inactive); on NB7+Caspase-8 (setting [3]), above 12.5 µM; on NB7+Caspase-8 (setting [4]), above 12.5 µM.
Turning to `COc1cccc(NC(=O)Nc2nccc(C)n2)c1`, the EC50 is > 12.5 µM (inactive) in assay [1] (mean of runs); above 12.5 µM in assay [1] (setting [3]); above 12.5 µM in assay [1] (setting [4]); above 12.5 µM at NB7+Caspase-8 (setting [3]); 4.33 µM on NB7+Caspase-8 (setting [4]). In assay [2], the EC50 entry is “inactive”.
As to `COCCCn1c(C(=O)Nc2ccc3c(c2)OCO3)cc2c(=O)n3cccc(C)c3nc21`, the EC50 in assay [1] (mean of runs) is > 12.5 µM (inactive); in assay [1] (setting [3]), above 12.5 µM; in assay [1] (setting [4]), above 12.5 µM; in assay [2], > 12.5 µM (inactive); on NB7+Caspase-8 (setting [3]), above 12.5 µM; at NB7+Caspase-8 (setting [4]), above 12.5 µM.
For the compound `CC(C)CCn1cnc2c([nH]c3cccc(Cl)c32)c1=O`, the EC50 in assay [1] (mean of runs) was > 12.5 µM (inactive); in assay [1] (setting [3]) it was above 12.5 µM; in assay [1] (setting [4]), above 12.5 µM; in assay [2], > 12.5 µM (inactive); at NB7+Caspase-8 (setting [3]) it was above 12.5 µM; at NB7+Caspase-8 (setting [4]) it was above 12.5 µM.
For the compound `Fc1ccc(-c2cnn3c(-c4ccncc4)ccnc23)cc1`, the EC50 in assay [1] (mean of runs) was > 12.5 µM (inactive); in assay [1] (setting [3]), above 12.5 µM; in assay [1] (setting [4]), above 12.5 µM; in assay [2], > 12.5 µM (inactive); at NB7+Caspase-8 (setting [3]), above 12.5 µM; at NB7+Caspase-8 (setting [4]) it was above 12.5 µM.
Take `CCOC(=O)C(=C1Nc2ccccc2N1)n1c(-c2cccnc2)nc2ccccc21`: the EC50 result in assay [1] (mean of runs) and in assay [2] was “inactive” in each case. The 50% effective concentration (EC50) in assay [1] (setting [3]) was above 12.5 µM; in assay [1] (setting [4]) it was 10.5 µM; on NB7+Caspase-8 (setting [3]), above 12.5 µM; at NB7+Caspase-8 (setting [4]), 9.47 µM.
`CCOC(=O)c1sc(NC(=O)c2cc(-c3ccccc3C)nc3ccccc23)c(C#N)c1C`: the EC50 in assay [1] (mean of runs) is > 12.5 µM (inactive); in assay [1] (setting [3]), above 12.5 µM; in assay [1] (setting [4]), above 12.5 µM; in assay [2], > 12.5 µM (inactive); at NB7+Caspase-8 (setting [3]), above 12.5 µM; at NB7+Caspase-8 (setting [4]), above 12.5 µM.
With `CCCCCc1cc(=O)oc2c(C(CCN(CC)CC)c3cc(OC)c(OC)c(OC)c3)c(OC)cc(OC)c12` (stereo not given), the EC50 was > 12.5 µM (inactive) in assay [1] (mean of runs); above 12.5 µM in assay [1] (setting [3]); above 12.5 µM in assay [1] (setting [4]); above 12.5 µM on NB7+Caspase-8 (setting [3]); 10.3 µM at NB7+Caspase-8 (setting [4]). For the same compound, in assay [2], the EC50 result is “inactive”.
For the compound `CC(C)Cc1nc2oc3c(Cl)ncnc3c2c2c1CCCC2`, the EC50 in assay [1] (mean of runs) is > 12.5 µM (inactive); in assay [1] (setting [3]), above 12.5 µM; in assay [1] (setting [4]) it was above 12.5 µM; in assay [2], > 12.5 µM (inactive); on NB7+Caspase-8 (setting [3]) it was above 12.5 µM; at NB7+Caspase-8 (setting [4]), above 12.5 µM.
For the compound `CCOc1ccc2nc(NC(=O)c3cccc(-c4cc5ccccc5oc4=O)c3)sc2c1`, the EC50 was > 12.5 µM (inactive) in assay [1] (mean of runs); above 12.5 µM in assay [1] (setting [3]); above 12.5 µM in assay [1] (setting [4]); > 12.5 µM (inactive) in assay [2]; above 12.5 µM at NB7+Caspase-8 (setting [3]); above 12.5 µM at NB7+Caspase-8 (setting [4]).
Consider `O=C(ONC1=NCCCCC1)c1ccc(Cl)cc1`, for which the EC50 result in assay [1] (mean of runs) is “inactive”. Further, the EC50 is above 12.5 µM in assay [1] (setting [3]); 7.44 µM in assay [1] (setting [4]); > 12.5 µM (inactive) in assay [2]; above 12.5 µM at NB7+Caspase-8 (setting [3]); above 12.5 µM at NB7+Caspase-8 (setting [4]).
As for `CC(C)C[C@H](NC(=O)c1nc[nH]c1C(=O)N[C@@H](CCCCNC(=O)OC(C)(C)C)C(=O)OC(C)(C)C)C(=O)OCc1ccccc1`, the EC50 in assay [1] (mean of runs) was > 12.5 µM (inactive); in assay [1] (setting [3]) it was above 12.5 µM; in assay [1] (setting [4]), above 12.5 µM; in assay [2], > 12.5 µM (inactive); on NB7+Caspase-8 (setting [3]), above 12.5 µM; on NB7+Caspase-8 (setting [4]), above 12.5 µM.

The record behind these values is PubChem BioAssay AID652002 (Sanford-Burnham Center for Chemical Genomics, 2013).
